Source: patent US20100029654A1, “CARDIOVASCULAR COMPOSITIONS AND USE OF THE SAME FOR THE TREATMENT OF ALZHEIMER'S DISEASE” (MOUNT SINAI SCHOOL OF MEDICINE, priority 2006, published 2010)
“Also recorded” adds a separate entry of the source.

Key:
[1] = test system: Tg2576 mice; test: tolerability: body weight, fluid consumption, glucose tolerance
[2] = test system: primary cortico-hippocampal neuron cultures; test: lactate dehydrogenase (LDH) activity assay in parallel neuron cultures
Procedure: For in vitro treatments drugs available from “The Spectrum Collection” in stocks of 10 mM in DMSO were applied directly to cultures to the desired concentrations (final 1% DMSO); control primary neuron cultures from Tg2576 embryos were treated with vehicle resulting in a final 1% DMSO.
Cell viability was assessed using a commercial available LDH assay kit according to the manufacture's instruction (Promega).

[3] = test system: Tg2576 mice; test: Morris water maze test of spatial memory; assay type: in vivo, mouse
Source text: In the MWM assay, experimental animals are placed into a circular water tank and provided with a submerged “escape platform” at a specific location. Appropriate visual cues are located on a wall surrounding the water tank. Through repeated “learning trials”, normal animals typically learn to use the visual cues for spatial navigation and eventually require less time to swim to the platform as reflected by reducing escape latency.
Behavioral assessment of cognitive function by the Morris water maze test. […] At ˜11 months of age, mice were put into the water maze from 4 different quadrants; spatial memory was assessed by recording the average latency time for the animal to escape to the hidden platform. The behavior analysis was consistently conducted during the last 4 hours of the day portion of the light cycle in an environment with minimal stimuli (e.g., noise, movement, or changes in light or temperature).

[4] = valsartan 10 or 40 mg/kg/day in drinking water, chronic

N-(1-oxopentyl)-N-[[2-(1H-tetrazol-5-yl) [1,1-biphenyl]-4-yl]methyl]-L-valine [Valsartan]
body weight [1, 4]: no detectable changes in body weight; also recorded: did not significantly influence animal body weight
fluid intake [1, 4]: did not significantly influence the amount of fluid intake
glucose-tolerance responses ([1]; valsartan 10 or 40 mg/kg/day, ~5 months): did not significantly influence
LDH (% of ctl) ([2]; Primary Screening, table sorted by Aβ1-40): 94.1 % of ctl
LDH (at 5F-5 M) ([2]; Table IV): no change
LDH at E-5M % of change ([2]; drug at E-5M): 13.0%
LDH (% of ctl) ([2]; primary screening, table sorted by Aβ1-42): 94.1 % of ctl
escape latency in Morris water maze ([3]; Tg2576 mice, valsartan 10 and 40 mg/kg/day vs untreated): significant improvement in escape latency; also recorded: significantly reduced escape latency; also recorded: performed significantly better than untreated mice
spatial memory performance in Morris water maze ([3]; WT mice, valsartan 10 or 40 mg/kg/day): did not significantly influence spatial memory performance; also recorded: failed to influence spatial reference memory performance
